# Results: patent US11771729B2, “Maca extract and use thereof” (KAOHSIUNG MEDICAL UNIVERSITY, priority 2021, dated 2023)
# Where two headings read alike, the source gives them in different places. Marks after values point to notes of the source that are not given here.
# What was measured:
# [1] = tested on: RBL-2H3 cells; test: Anti-allergy test: antigen-induced β-hexosaminidase release; format: cell-based; conditions: for Antigen-induced β-hexosaminidase release Inhibition rate (%): Table 4, isolated compounds, concentration not given
# Procedure: (§1) Equivalently divided supernatants (50 μL) of control wells and experimental wells were incubated with an equal volume (50 μL) of […] p-NAG prepared in 0.1 M citrate buffer (pH 4.5), in which the buffer is formed as a matrix of released β-hexosaminidase; the reaction, after 1 hour incubation at 37° C., was stopped by adding 100 μL of termination buffer (0.1M Na2/NaHCO3, pH 10.0), and then, the absorbance at a wavelength of 405 nm was measured with a microplate reader. The percentage of inhibiting RBL-2H3 cells from releasing β-hexosaminidase was calculated as the percentage of control (untreated stimulated cells), and azelastine (20 μM) was used as a positive control. The test results are shown in Tables 4 to 6 below, and the corresponding results are indicated as mean±SEM (the test was repeated 3 times), wherein * denotes p<0.05, ** denotes p<0.01, *** denotes p<0.001; - denotes being untested; and N/A denotes that the specimen forms mycelium added to the medium, and accordingly, the results cannot be proven.
# [2] = tested on: RBL-2H3 cells; test: Cell viability of RBL-2H3 cells (MTT); conditions: Table 6, isolated compounds, head prints 200 μg/ml
# Procedure: (§3) Cells were cultured using DMEM medium supplemented with 10% FBS, and additional 100 U/mL penicillin and 100 μg/mL streptomycin. The cells were cultured in 10 cm Petri dishes in a 5% CO2 incubator at 37° C., the cells were secondary cultured in 80% confluent trypsin, and then seeded on culture plates at a density of 2×10^5 cells/mL for secretion measurement.
# (§4) Measurement on cell viability: RBL-2H3 cells were seeded in a 96-well plate at a concentration of 2×10^4 cells/well overnight, specimens having different concentrations (that is, maca extract, dissolved in DMSO) or untreated controls (1% DMSO in Tyrode buffer; 135 mM NaCl, 5 mM KCl, 1.8 mM CaCl, 1.0 mM MgCl2, 5.6 mM glucose, 20 mM HEPES and 1 mg/ml BSA, pH 7.4) were used to treat the cells, the media was removed from the wells after incubation at 37° C., 5% CO2, and an MTT solution (5 mg/mL) stock solution was diluted 1:10 in the medium and then added to the wells (100 μL per well); Thereafter, the cells were incubated at 37° C., 5% CO2 for 1 hours, the medium was removed, the formed Formazan crystals (which can be formed only in normal healthy cells) were dissolved in 100 μL DMSO, and the absorbance at 574 nm wavelength was measured using a microplate reader in which the plates were gently shaked before the measurement. Cell viability values for the specimens were calculated and indicated as a percentage (%) of the control groups (untreated cells).
# [3] = tested on: human CD34-positive endothelial progenitor cells (EPC); test: Pro-angiogenic test: EPC cell growth; format: cell-based; conditions: 50 μM of each isolated compound, 48 hours, mean±SEM
# Procedure: Endothelial cell culture: Isolation and culture of human CD34-positive endothelial progenitor cells (EPC) were performed using conventional methods (Chen et al., 2018); human umbilical vein endothelial cells (HUVECs) were purchased from Promo Cell (Heidelberg, Germany); and EPCs and HUVECs were maintained in MV2 medium according to a known protocol (Chung et al., 2013).
# Measurement of cell growth: EPCs and HUVECs were cultured overnight at a density of 5×10^3 cells per well in a 96-well plate, and then, in the presence of the test specimen (that is, maca extract), the original medium was replaced with MV2 minimal medium and incubated for 48 hours. The measurements on EPC cell growth were as described in Yang et al., 2019.
# The results are shown in Table 1 as below, in which corresponding results are indicated as mean±SEM (the test was repeated 3 times as a whole), wherein, compared to the control group (DSMO), * denotes p<0.05, ** denotes p<0.01, *** denotes p<0.001; and - denotes being untested.
# [4] = tested on: RBL-2H3 cells; test: Anti-allergy test: A23187-induced β-hexosaminidase release; format: cell-based; conditions: for A23187-induced β-hexosaminidase release Inhibition rate (%): Table 4, isolated compounds, concentration not given (values equal 100 μM column of Table 6)
# Procedure: as §1
# [5] = tested on: human neutrophil; test: Anti-neutrophil inflammation test: elastase release; format: cell-based; conditions: isolated compounds (10 μM) and positive controls 10 μM, fMLF/CB-activated neutrophils, mean±SEM
# Procedure: (§2) Isolation of human neutrophil: According to the standard scheme of […] sedimentation, neutrophils was obtained from peripheral blood, and then, the neutrophils were purified by centrifugation and erythrocyte hypotonic degradation in a Ficoll-Hypaque gradient; and then, it was confirmed by the trypan blue exclusion test that the purified neutrophils contained more than 98% live cells, and the purified neutrophils were suspended in HBSS without calcium at 4° C. (Yang et al., 2013) prior to the test.
# The elastase release was used to measure degranulation of azurophilic granules in activated neutrophils (Yang et al., 2013); and the measurement was performed using methoxysuccinyl-Ala-Ala-Pro-Val-p-nitroaniline as an elastase matrix. At 37° C., neutrophils (6×10^5 cells/mL) were added to a mixture of matrix (100 μmol/L) and CaCl2 (1 mmol/L), and treated with the test specimens having different concentrations (that is, maca extract) or DMSO (0.1% as control) for 5 minutes, and then the cells were stimulated by using fMLF (100 nM)/CB (0.5 μg/mL), and changes in absorbance at the 405 nm wavelength were continuously monitored to measure the release of elastase, in which genistein and LY294002 were used as positive controls. The corresponding results are indicated as mean±SEM (the test was repeated 3 or 4 times), in which * denotes p<0.05, ** denotes p<0.01, *** denotes p<0.001; and - denotes being untested.
# [6] = tested on: human neutrophil; test: Anti-neutrophil inflammation test: superoxide anion generation; format: cell-based; conditions: isolated compounds (10 μM) and positive controls 10 μM, fMLF/CB-activated neutrophils, mean±SEM
# Procedure: as §2
# The level of superoxide anion generation by neutrophil activation was measured and determined based on the ferrocytochrome c reduction method according to Yang et al., 2013. In other words, human neutrophil cells (6×10^5 cells/mL) were mixed with 0.6 mg/mL of ferrocytochrome c and 1 mmol/L of CaCl at 37° C., and then the cells were treated with the test specimens having different concentrations (that is, maca extract) or DMSO (0.1% as control) for 5 minutes; thereafter, 10 minutes before activation with 100 nM of fMLF, the cells were incubated with cytochalasin B (1 μg/mL) for 3 minutes, changes in absorbance according to the decrease in ferrocytochrome c at a wavelength of […] with continuous stirring were continuously monitored using a spectrophotometer, and reactions were calculated with and without superoxide dismutase (SOD, 100 U/mL) with dividing by the extinction coefficient of the decreased ferrocytochrome c (21.1 mM^−1 cm^−1) reduction, thereby obtaining the difference value.
# [7] = tested on: RBL-2H3 cells
# Procedure: as §3, §4
Compound,Percentage of inhibiting antigen-induced β-hexosaminidase release (%) 10 μM/mL [1],Percentage of inhibiting antigen-induced β-hexosaminidase release (%) 100 μM/mL [1],Percentage of inhibiting antigen-induced β-hexosaminidase release (%) 500 μM/mL [1],Antigen-induced β-hexosaminidase release Inhibition rate (%) [1],Viability of RBL-2H3 cells at 200 μg/ml [2],Cell growth rate (%) EPC [3],Percentage of inhibiting A23187-induced β-hexosaminidase release (%) 10 μM/mL [4],Percentage of inhibiting A23187-induced β-hexosaminidase release (%) 100 μM/mL [4],Percentage of inhibiting A23187-induced β-hexosaminidase release (%) 500 μM/mL [4],Inhibition rate (%) Elastase release [5],Inhibition rate (%) Superoxide anion generation [6],"inhibition at 10 µM ([5]; Homo sapiens, Neutrophil, read-out: Inhibition rate (%) Elastase release)","inhibition at 10 µM ([6]; Homo sapiens, Neutrophil, read-out: Inhibition rate (%) Superoxide anion generation)",A23187-induced β-hexosaminidase release Inhibition rate (%) [4],Viability of RBL-2H3 cells at 200 μg/ml [7],"IC50 ([4]; Table 6, isolated compounds)"
"CC(=O)[C@@H]1CCC(=O)N1Cc1ccccc1 [Compound 1, (5S)-acetyl-1-benzylpyrrolidine-2-ketone]",3.7 ± 1.9%,5.7 ± 2.2%,9.0 ± 3.7%,9.0 ± 3.7%,95.3%,99 ± 1%,2.7 ± 1.2%,4.0 ± 1.7%,38.0±3.4%,1.59 ± 0.99%,7.50 ± 1.96 %,–,–,–,–,–
"O=c1c(-c2ccc(O)cc2)coc2cc(O)cc(O)c12 [Genistein, reference compound]",–,–,–,–,–,–,–,–,–,–,–,44.2 ± 3.72%,93.37 ± 0.93%,–,–,–
"O=Cc1cc[n+]([O-])cc1Cc1ccccc1 [Compound 7, 3-(benzyl)-1-(hydroxy)-4-aldehyde pyridine]",11.7 ± 2.6%,8.0 ± 1.2%,0.0 ± 0.0%,8.0 ± 1.2%,–,105 ± 3%,2.0 ± 1.6%,6.0 ± 0.8%,18.0 ± 3.4%***,2.48 ± 3.05%,10.94 ± 1.84 %,–,–,6.0 ± 0.8%,94.7%,–
"COCc1ccc(C=O)n1Cc1ccccc1 [Compound 5, 5-methoxymethyl-1-(benzyl)-2-aldehyde pyrrole]",9.0 ± 4.8%,11.7 ± 5.9%,8.3 ± 3.5%,11.7 ± 5.9%,94.0%,99 ± 5%,21.3 ± 3.3%***,51.3 ± 4.6%***,57.7 ± 4.3%***,3.33 ± 0.50** %,21.59±5.35%,–,–,51.3 ± 4.6*** %,–,96.1 µM
"COCc1ccc(C=O)n1Cc1cccc(OC)c1 [Compound 3, 5-methoxymethyl-1-(m-methoxybenzyl)-2-aldehyde pyrrole]",13.7 ± 1.9%,10.7 ± 3.3%,5.0 ± 4.1%,10.7 ± 3.3%,95.0%,–,3.7 ± 1.5%,4.7 ± 0.7%,12.7 ± 0.7%**,–,–,–,–,4.7 ± 0.7%,–,–
"COc1cccc(Cn2c(C=O)ccc2CO)c1 [Compound 4, 5-hydroxymethyl-1-(m-methoxybenzyl)-2-aldehyde pyrrole]",16.7 ± 6.6%*,10.0 ± 4.1%,–,10.0 ± 4.1%,96.0%,103 ± 1%,8.3 ± 1.0%,6.7 ± 1.4%,–,0.00 ± 0.59%,1.05 ± 0.78%,–,–,6.7 ± 1.4%,–,–
